Experimental data taken from patent US20260364214A1, “MULTIVALENT FIBROBLAST ACTIVATION PROTEIN LIGANDS FOR TARGETED DELIVERY APPLICATIONS” (Philochem AG, priority 2022, published 2026).

System: SK-RC-52.hFAP tumors
Experiment: Quantitative biodistribution in SK-RC-52.hFAP tumor bearing mice
Type: in vivo, mouse (female athymic Balb/c AnNRj-Foxn1)
Conditions: i.v. 250 nmol/kg, 50 MBq/kg
Protocol: SK-RC-52.hFAP were grown to 80% confluence in RPMI-1640 with 10% fetal bovine serum (FBS) and 1% antibiotic-antimycotic and detached with Trypsin-EDTA (ethylenediaminetetraacetic acid) 0.05%. Tumor cells were resuspended in Hanks' Balanced Salt Solution medium. Aliquots of 5 million cells (100 μL of suspension) were injected subcutaneously in the right flank of female athymic Balb/c AnNRj-Foxn1 mice (6 to 8 wk of age).
Radiolabeling of ESV6-DOTAGA, Bi-ESV6-DOTAGA, Tri-ESV6-DOTAGA, Tetra-ESV6-DOTAGA, Hexa-ESV6-DOTAGA, Octa-ESV6-DOTAGA and FAP-2286 with lutetium-177 (a therapeutic radionuclide) was performed with different specific activities for three different studies (biodistribution, therapy and dose optimization).
Prior to the biodistribution study, precursors (100 nmol) were dissolved in 100 μL of milliQ water and diluted with 200 μL of sodium acetate (1 M in water, pH=4.5). 20 MBq of ^177Lu solution were added and the mixture was heated at 90 °C for 10 minutes, followed by dilution with […] of PBS to achieve final volume of 2 mL (20 doses of 100 μL each).
ESV6-DOTAGA, Bi-ESV6-DOTAGA, Tri-ESV6-DOTAGA, Tetra-ESV6-DOTAGA, Hexa-ESV6-DOTAGA, Octa-ESV6-DOTAGA and FAP-2286 were radiolabeled with ^177Lu as described above. Tumors were allowed to grow to an average volume of 300 mm^3. Mice were randomized and injected intravenously with radiolabeled preparations of ^177Lu-ESV6, ^177Lu-Bi-ESV6, ^177Lu-Tri-ESV6, Tetra-ESV6-DOTAGA, Hexa-ESV6-DOTAGA, Octa-ESV6-DOTAGA or ^177Lu-FAP-2286 (250 nmol/kg; 50 MBq/kg). Mice were euthanized at different time-points after the intravenous injection by CO2 asphyxiation. Tumors, organs, and blood were collected, weighted, and radioactivity was measured with a Packard Cobra Gamma Counter. Values are expressed as percent ID/g±SD [FIG. 4]. The % ID/g in the tumors was corrected considering the SK-RC-52.hFAP tumor growth rate.
Quantitative in vivo biodistribution of ^177Lu-ESV6-DOTAGA, ^177Lu-Bi-ESV6-DOTAGA, ^177Lu-Tri-ESV6-DOTAGA, ^177Lu-FAP-2286, Tetra-ESV6-DOTAGA, Hexa-ESV6-DOTAGA and Octa-ESV6-DOTAGA at different time points after intravenous administration (250 nmol/kg, 50 MBq/kg) in mice bearing SK-RC-52.hFAP tumors, are shown in Tables 1 to 4 and 10 to 12. Data are reported as % ID/g±standard deviation.
Tumor-to-organ ratios of ^177Lu-ESV6-DOTAGA, ^177Lu-Bi-ESV6-DOTAGA, ^177Lu-Tri-ESV6-DOTAGA, ^177Lu-FAP-2286, Tetra-ESV6-DOTAGA, Hexa-ESV6-DOTAGA and Octa-ESV6-DOTAGA, at different time points after intravenous administration (250 nmol/kg, 50 MBq/kg) in mice bearing SK-RC-52.hFAP tumors, are shown in Tables 5 to 8 and 13 to 15. Avg.=average; Std.d=standard deviation.

N#C[C@@H]1CC(F)(F)CN1C(=O)CNC(=O)c1ccnc2c(NC(=O)CCC(=O)NCCNC(=O)CCOCC(COCCC(=O)NCCNC(=O)CCC(=O)Nc3cccc4c(C(=O)NCC(=O)N5CC(F)(F)C[C@H]5C#N)ccnc34)NC(=O)CCOCC(COCCC(=O)NC(COCCC(=O)NCCNC(=O)CCC(=O)Nc3cccc4c(C(=O)NCC(=O)N5CC(F)(F)C[C@H]5C#N)ccnc34)COCCC(=O)NCCNC(=O)CCC(=O)Nc3cccc4c(C(=O)NCC(=O)N5CC(F)(F)C[C@H]5C#N)ccnc34)NC(=O)CCC(C(=O)O)N3CCN(CC(=O)[O-])CCN(CC(=O)[O-])CCN(CC(=O)[O-])CC3)cccc12.[177Lu+3] (stereo partly drawn) [^177Lu-Tetra-ESV6-DOTAGA]
Tumor to organs ratio, Blood (6 h): 53.01 | Injected dose per gram, Blood (6 h post injection): 1.16 % ID/g | Tumor to organs ratio, Blood (24 h): 146.80 | Injected dose per gram, Blood (24 h post injection): 0.29 % ID/g | Tumor to organs ratio, Blood (96 h): 1062.04 | Injected dose per gram, Blood (96 h post injection): 0.01 % ID/g | Tumor to organs ratio, Heart (6 h): 114.60 | Injected dose per gram, Heart (6 h post injection): 0.50 % ID/g | Tumor to organs ratio, Heart (24 h): 166.10 | Injected dose per gram, Heart (24 h post injection): 0.26 % ID/g | Tumor to organs ratio, Heart (96 h): 133.14 | Injected dose per gram, Heart (96 h post injection): 0.12 % ID/g | Tumor to organs ratio, Intestine (6 h): 86.50 | Injected dose per gram, Intestine (6 h post injection): 0.70 % ID/g | Tumor to organs ratio, Intestine (24 h): 284.15 | Injected dose per gram, Intestine (24 h post injection): 0.15 % ID/g | Tumor to organs ratio, Intestine (96 h): 213.10 | Injected dose per gram, Intestine (96 h post injection): 0.07 % ID/g | Tumor to organs ratio, Kidney (6 h): 27.69 | Injected dose per gram, Kidney (6 h post injection): 2.10 % ID/g | Tumor to organs ratio, Kidney (24 h): 23.62 | Injected dose per gram, Kidney (24 h post injection): 1.79 % ID/g | Tumor to organs ratio, Kidney (96 h): 2.36 | Injected dose per gram, Kidney (96 h post injection): 5.77 % ID/g | Tumor to organs ratio, Liver (6 h): 15.19 | Injected dose per gram, Liver (6 h post injection): 3.81 % ID/g | Tumor to organs ratio, Liver (24 h): 9.42 | Injected dose per gram, Liver (24 h post injection): 4.52 % ID/g | Tumor to organs ratio, Liver (96 h): 2.07 | Injected dose per gram, Liver (96 h post injection): 6.64 % ID/g | Tumor to organs ratio, Lung (6 h): 52.76 | Injected dose per gram, Lung (6 h post injection): 1.09 % ID/g | Tumor to organs ratio, Lung (24 h): 138.32 | Injected dose per gram, Lung (24 h post injection): 0.35 % ID/g | Tumor to organs ratio, Lung (96 h): 69.86 | Injected dose per gram, Lung (96 h post injection): 0.24 % ID/g | Tumor to organs ratio, Muscle (6 h): 61.99 | Injected dose per gram, Muscle (6 h post injection): 0.94 % ID/g | Tumor to organs ratio, Muscle (24 h): 98.07 | Injected dose per gram, Muscle (24 h post injection): 0.44 % ID/g | Tumor to organs ratio, Muscle (96 h): 288.08 | Injected dose per gram, Muscle (96 h post injection): 0.06 % ID/g | Tumor to organs ratio, Spleen (6 h): 44.00 | Injected dose per gram, Spleen (6 h post injection): 1.33 % ID/g | Tumor to organs ratio, Spleen (24 h): 20.72 | Injected dose per gram, Spleen (24 h post injection): 2.19 % ID/g | Tumor to organs ratio, Spleen (96 h): 3.88 | Injected dose per gram, Spleen (96 h post injection): 3.64 % ID/g | Tumor to organs ratio, Tail (6 h): 24.06 | Injected dose per gram, Tail (6 h post injection): 1.85 % ID/g | Tumor to organs ratio, Tail (24 h): 36.71 | Injected dose per gram, Tail (24 h post injection): 1.16 % ID/g | Tumor to organs ratio, Tail (96 h): 24.96 | Injected dose per gram, Tail (96 h post injection): 0.54 % ID/g | Injected dose per gram, Tumor (6 h post injection): 57.25 % ID/g | Injected dose per gram, Tumor (24 h post injection): 42.15 % ID/g | Injected dose per gram, Tumor (96 h post injection): 13.36 % ID/g
